Reference: patent US7553826B2, “Cytarabine monophosphate prodrugs” (Metabasis Therapeutics, Inc., priority 2002, dated 2009)
“And” between values parts separate entries of the source, which are not always exact repeats. Identical values can stand only once.

Legend:
[1] = Single dose i.p. bolus liver levels / liver targeting in mice
Procedure: At specified times post injection, mice were anesthetized and exsanguinated via cardiac puncture. The whole liver was removed, and snap-frozen in liquid nitrogen, and homogenized using a Polytron homogenizer PT 10/35 (Brinkmann Instruments, Westbury, N.Y.) in 3 volumes of 10% (v/v) perchloric acid (PCA). After a 5 min centrifugation at 2,500×g, 1 mL of supernatant was neutralized using 0.3 mL 3 M KOH/3 M KHCO3 and mixed thoroughly. Samples were then centrifuged for 5 minutes and resulting supernatants were treated with periodate in order to remove endogenous ribonucleotides which otherwise might interfere with araCTP detection. […] Resulting samples were analyzed by HPLC as described below.
To measure bone marrow araCTP, the bone marrow samples were flushed from the marrow cavities of femurs with 1.2 ml saline into pre-weighed Eppendorf tubes. After centrifugation for 20-30 seconds (Eppendorf microfuge, 14,000 rpm) and removal of the supernatant, 12 volumes of 3% PCA (v/v) were added to the bone marrow cell pellets. Samples were then vortexed until the pellet was well dissolved and centrifuged as above for 10 min. Ninety μL of extracted supernatant was neutralized to pH 7-8 using 30 μL 1 M KOH/1 M KHCO3 and again centrifuged. Resulting supernatants were periodate-treated as above.
Samples (50 μL) were injected onto the column in 70% 10 mM ammonium phosphate buffer and 30% 1 M ammonium phosphate buffer, both at pH 3.5 and containing 6% ethanol. […] A standard curve was prepared by adding known amounts of araCTP into PCA extracts from control liver or bone marrow prior to neutralizing, and preparing HPLC samples accordingly.
To obtain plasma, blood was transferred to heparinized micro-collection tubes and centrifuged in an Eppendorf microfuge at 14,000 rpm for 2 minutes. Resulting plasma was collected, placed on dry ice, and subsequently stored at −20° C. On the day of analysis, proteins were precipitated by adding 1 mL acetonitrile to 100 μL of plasma. After 10 min centrifugation (Eppendorf microfuge, 14,000 rpm), the supernatant was removed and dried in a Savant SpeedVac Plus SC110A. Samples were reconstituted with 110 μL of mobile phase buffer (20 mM KH2PO4, pH 4.5), sonicated for 5 min, and centrifuged for 30 seconds. […] AraC and prodrugs were detected by absorbance at 280 nm and quantitated using standard curves obtained with spiked plasma samples processed as above.
Results are expressed as mean±standard error of the mean. Data were analyzed by repeated measures ANOVA, followed by the Tukey HSD post-hoc test for comparisons at individual time points when appropriate. A p-value of less than 0.05 was considered statistically significant. Dotted lines in figures indicate LOQ (limit of quantitation) using the indicated HPLC method.
(§1) In those studies, liver, plasma and bone marrow samples were obtained at necropsy to evaluate liver targeting.
(§2) Results are expressed as mean±standard error of the mean. When appropriate, AUC was calculated from time zero to the last time-point of the study. Liver targeting indices (LTIs) were calculated by dividing the liver araCTP AUC by the AUC for plasma araC (plasma LTI) or by the AUC for bone marrow araCTP (bone marrow LTI) for each compound. For the continuous infusion studies, the steady state araCTP levels were divided by the steady state plasma araC levels.

[2] = Liver araCTP and liver targeting with continuous i.v. infusion in rats
From the text: A saline filled blunt PE-50 tubing catheter (Intramedic, Becton Dickinson, Sparks, Md.) was inserted into the jugular vein, exteriorized between the scapulae and connected to a swivel-tethering constant infusion system (Lomir Biomedical, Inc., Malone, N.Y. and Harvard Apparatus, Inc., South Natick, Mass.). The tubing was filled with heparinized saline and sealed, and the animals allowed to recover for one to seven days.
After the various durations of infusion the animals were anesthetized by intra-catheter injections of the anesthetic mix described above. Blood samples were obtained via cardiac puncture using a 23-gauge needle attached to a heparin coated 3 cc syringe.
as §1, §2

human liver microsomes = assay: Enzyme kinetics of prodrug activation to araCMP in human liver microsomes
[3] = rats, 200 mg CE/kg/day continuous intravenous infusion

Nc1ccn([C@@H]2O[C@H](CO[P@@]3(=O)OCC[C@@H](c4ccncc4)O3)[C@@H](O)[C@@H]2O)c(=O)n1 [Compound A, 2(1H)-Pyrimidinone, 4-amino-1-[5-O-[(2R,4S)-2-oxido-4-(4-pyridinyl)-1,3,2-dioxaphosphorinan-2-yl]-β-D-arabinofuranosyl]]
Liver araCTP Peak @ 1 hr ([1]; Mouse, 100 mg (cytarabine equivalents)/kg single IP injection): 96 nmol/g and 70 nmol/g
LTI (Liver/plasma) ([1]; Mouse, 100 mg CE/kg single IP, liver araCTP AUC / plasma araC AUC): 27 nmol/g/μM and 19.5 nmol/g/μM
reduction of peripheral exposure (liver targeting) ([1]; administered intraperitoneally): ~20 fold
liver araCTP levels relative to Compound B ([1]; mice, bolus i.p. injection): ~2 fold
plasma araC levels relative to Compound B ([1]; mice, bolus i.p. injection): ~2 fold
liver araCTP peak at 60 minutes post injection ([1]; mice, single i.p. bolus, 100 mg/kg CE): 69.89 ± 6.37 nmol/g
reduction of peripheral exposure (liver targeting) ([2]; administered by continuous intravenous infusion): ~10 fold
LTI @ 24 hrs (Liver/plasma) [2, 3]: 7.5 nmol/g/μM
Liver araCTP 24 hr [2, 3]: 12.0 nmol/g
Liver araCTP @ 4 hr [2, 3]: 12.8 nmol/g
Plasma Prodrug steady state [2, 3]: 40 to 50 µM
Plasma araC steady state [2, 3]: ~1.6 µM
steady state liver araCTP levels by 4 hours ([2]; rats, continuous infusion 200 mg/kg/24 hours): 12.84 ± 1.50 nmol/g
average liver araCTP for the remaining 44 hours ([2]; rats, continuous infusion 200 mg/kg/24 hours, 48 hr): 13 ± 1 nmol/g
Vmax (human liver microsomes; activation to araCMP, 2 mg/mL human liver microsomes lot RQX, 1 mM NADPH, pH 7.4, 37° C, 5 min): 0.11 ± 0.02 nmol/min/mg
Km (human liver microsomes; activation to araCMP, human liver microsomes lot RQX): 1080 ± 270 µM
intrinsic clearance / activation rate relative to Compound B (human liver microsomes; human liver microsomes lot RQX): 2.6 fold
